# Assay results reported in ChEMBL document CHEMBL1201862, “PubChem BioAssay data set” (2004).
#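 Briefly, cells in 96-well plates were exposed to five compound concentrations for 48 h, and endpoints were estimated by linear interpolation. GI50 marks 50% less growth.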 Activity calls are given as the source filed them. No stated cut-off is given here; in the data, active = GI50 up to about 1.1 µM and inactive = higher.
# What was measured:
# Assay in all cases: growth of human tumour cells (NCI), 48 h
# K562 = tested on: K562
# IGROV-1 = tested on: IGROV-1
# A549 = tested on: A549
# MDA-MB-435 = tested on: MDA-MB-435
# LOX IMVI = tested on: LOX IMVI
# Hs-578T = tested on: Hs-578T
# DU-145 = tested on: DU-145
# NCI-H460 = tested on: NCI-H460
# RPMI-8226 = tested on: RPMI-8226
# HOP-62 = tested on: HOP-62
# TK-10 = tested on: TK-10
# OVCAR-3 = tested on: OVCAR-3
# SNB-75 = tested on: SNB-75
# SN12C = tested on: SN12C
# HCC 2998 = tested on: HCC 2998
# SK-MEL-28 = tested on: SK-MEL-28
# SF-539 = tested on: SF-539
# RXF 393 = tested on: RXF 393
# SF-268 = tested on: SF-268
# NCI-H522 = tested on: NCI-H522
Compound,GI50 (K562),GI50 (IGROV-1),GI50 (A549),GI50 (MDA-MB-435),GI50 (LOX IMVI),GI50 (Hs-578T),GI50 (DU-145),GI50 (NCI-H460),GI50 (RPMI-8226),GI50 (HOP-62),GI50 (TK-10),GI50 (OVCAR-3),GI50 (SNB-75),GI50 (SN12C),GI50 (HCC 2998),GI50 (SK-MEL-28),GI50 (SF-539),GI50 (RXF 393),GI50 (SF-268),GI50 (NCI-H522)
COC(C/C(=C/CO[Si](C(C)C)(C(C)C)C(C)C)C(=O)N(COCC[Si](C)(C)C)c1ccccc1I)OC,> 100 µM (inactive),0.0247 µM (active),37.2 µM (inactive),5.53 µM (inactive),14.7 µM (inactive),48.2 µM (inactive),> 100 µM (inactive),33.4 µM (inactive),> 100 µM (inactive),50.9 µM (inactive),63.1 µM (inactive),17.8 µM (inactive),> 100 µM (inactive),71 µM (inactive),43.9 µM (inactive),14 µM (inactive),,,,
C=C(OC1C(C)=C2C(C1OC(=O)CCCCCCC)C(C)(OC(C)=O)CC(OC(=O)CCC)C1(O)C2OC(=O)C1(C)O)/C(C)=C/C (stereo not given),0.0125 µM (active),0.0125 µM (active),0.0125 µM (active),< 0.0001 µM (active),0.0125 µM (active),,< 0.0001 µM (active),0.0125 µM (active),0.0125 µM (active),,,,0.0125 µM (active),0.0125 µM (active),0.0125 µM (active),0.0125 µM (active),0.0125 µM (active),0.0125 µM (active),0.0125 µM (active),0.0125 µM (active)
Cc1cccc2c(=O)c3cccc([C@@H](C)C(=O)O)c3oc12,> 100 µM (inactive),> 100 µM (inactive),> 100 µM (inactive),> 100 µM (inactive),> 100 µM (inactive),> 100 µM (inactive),> 100 µM (inactive),> 100 µM (inactive),> 100 µM (inactive),> 100 µM (inactive),> 100 µM (inactive),> 100 µM (inactive),,> 100 µM (inactive),> 100 µM (inactive),> 100 µM (inactive),> 100 µM (inactive),,> 100 µM (inactive),> 100 µM (inactive)
O=C(O)c1ccccc1/C=C1\Cc2cc3c(cc2C1=O)CCC3,17.1 µM (inactive),23.6 µM (inactive),30.1 µM (inactive),12.7 µM (inactive),14.9 µM (inactive),,25.3 µM (inactive),24.2 µM (inactive),21.1 µM (inactive),25.3 µM (inactive),17.8 µM (inactive),31.2 µM (inactive),3.57 µM (inactive),20.4 µM (inactive),27.6 µM (inactive),50.5 µM (inactive),29.1 µM (inactive),21.3 µM (inactive),35.3 µM (inactive),18.9 µM (inactive)
O=C1c2cscc2C(=O)C1(O)O,33 µM (inactive),> 100 µM (inactive),> 100 µM (inactive),32.6 µM (inactive),> 100 µM (inactive),> 100 µM (inactive),> 100 µM (inactive),> 100 µM (inactive),45 µM (inactive),> 100 µM (inactive),> 100 µM (inactive),25.2 µM (inactive),,20 µM (inactive),,> 100 µM (inactive),> 100 µM (inactive),,> 100 µM (inactive),18.7 µM (inactive)
CC1(C)OCC(C2OC(OC(=O)c3ccc(C(F)(F)F)cc3)C3OC(C)(C)OC23)O1 (stereo not given),> 77.4 µM (inactive),> 77.4 µM (inactive),> 77.4 µM (inactive),> 77.4 µM (inactive),> 77.4 µM (inactive),,> 77.4 µM (inactive),49.5 µM (inactive),44.4 µM (inactive),39.9 µM (inactive),> 77.4 µM (inactive),> 77.4 µM (inactive),40.2 µM (inactive),> 77.4 µM (inactive),> 77.4 µM (inactive),> 77.4 µM (inactive),> 77.4 µM (inactive),28 µM (inactive),45.4 µM (inactive),> 77.4 µM (inactive)
N#CCCC1(CCC#N)CCCCCCCCC(CCC#N)(CCC#N)C(=O)C1=O,83.9 µM (inactive),,> 100 µM (inactive),> 100 µM (inactive),> 100 µM (inactive),91 µM (inactive),> 100 µM (inactive),> 100 µM (inactive),,> 100 µM (inactive),> 100 µM (inactive),> 100 µM (inactive),63.8 µM (inactive),> 100 µM (inactive),> 100 µM (inactive),> 100 µM (inactive),44.6 µM (inactive),,> 100 µM (inactive),5.81 µM (inactive)
C#CC(O)/C=C/C(O)CCCC(O)CC#CC(O)C#CC(O)CCCC(O)/C=C/CCCCCC(=O)CCCCCCCCCCCCCC(O)C(O)C#CC(=O)O (stereo not given),> 50 µM (inactive),13.7 µM (inactive),> 50 µM (inactive),> 50 µM (inactive),12.8 µM (inactive),12.2 µM (inactive),> 50 µM (inactive),> 50 µM (inactive),26.5 µM (inactive),> 50 µM (inactive),> 50 µM (inactive),,12.3 µM (inactive),> 50 µM (inactive),> 50 µM (inactive),12 µM (inactive),,,> 50 µM (inactive),8.89 µM (inactive)
CC(=O)O[C@H]1C(=O)[C@@]2(C)[C@H]([C@H](OC(=O)c3ccccc3)[C@]3(O)C[C@H](OC(=O)[C@H](O)[C@@H](NC(=O)c4ccccc4)C4CCCCC4)C(C)=C1C3(C)C)[C@]1(OC(C)=O)CO[C@@H]1C[C@@H]2O,< 0.01 µM (active),< 0.01 µM (active),< 0.0173 µM (active),< 0.01 µM (active),< 0.01 µM (active),< 0.01 µM (active),,< 0.01 µM (active),< 0.01 µM (active),< 0.01 µM (active),0.0352 µM (active),< 0.01 µM (active),,,< 0.01 µM (active),34.1 µM (inactive),< 0.01 µM (active),< 0.01 µM (active),< 0.01 µM (active),< 0.01 µM (active)
CC(=O)OC1OC(c2ccoc2)C[C@@]12C1CCC3O[C@]3(C)[C@]1(C)[C@H](OC(C)=O)[C@H](OC(C)=O)[C@H]2C (stereo not given in full),> 37.5 µM (inactive),> 37.5 µM (inactive),> 37.5 µM (inactive),,28.1 µM (inactive),> 37.5 µM (inactive),,> 37.5 µM (inactive),,> 37.5 µM (inactive),> 37.5 µM (inactive),> 37.5 µM (inactive),,> 37.5 µM (inactive),> 37.5 µM (inactive),> 37.5 µM (inactive),> 37.5 µM (inactive),> 37.5 µM (inactive),,
CCOc1ccc(/C=C2/C(=O)N/C(=N\C(C)=O)N2C)cc1,,> 100 µM (inactive),> 100 µM (inactive),> 100 µM (inactive),> 100 µM (inactive),,> 100 µM (inactive),67.5 µM (inactive),,96.6 µM (inactive),> 100 µM (inactive),> 100 µM (inactive),> 100 µM (inactive),> 100 µM (inactive),> 100 µM (inactive),> 100 µM (inactive),> 100 µM (inactive),> 100 µM (inactive),> 100 µM (inactive),
COC(=O)C1CC2(CCC1=O)Cc1ccccc1C2=O (stereo not given),42.3 µM (inactive),> 100 µM (inactive),> 100 µM (inactive),,> 100 µM (inactive),> 100 µM (inactive),> 100 µM (inactive),> 100 µM (inactive),65.5 µM (inactive),> 100 µM (inactive),> 100 µM (inactive),,> 100 µM (inactive),> 100 µM (inactive),> 100 µM (inactive),> 100 µM (inactive),> 100 µM (inactive),14.5 µM (inactive),> 100 µM (inactive),67.8 µM (inactive)
CN1C(=O)[C@@]2(C=CC3(CC2)OCCO3)c2ccccc21,> 50 µM (inactive),0.48 µM (active),> 50 µM (inactive),> 45 µM (inactive),> 50 µM (inactive),,> 50 µM (inactive),> 50 µM (inactive),> 50 µM (inactive),> 32.1 µM (inactive),> 50 µM (inactive),> 50 µM (inactive),> 25.9 µM (inactive),> 50 µM (inactive),> 50 µM (inactive),> 50 µM (inactive),,> 50 µM (inactive),10.3 µM (inactive),8.53 µM (inactive)
CCOC(=O)Nc1[nH]cc(-c2ccccc2)c1C#N,> 100 µM (inactive),> 100 µM (inactive),> 100 µM (inactive),> 100 µM (inactive),> 100 µM (inactive),> 100 µM (inactive),> 100 µM (inactive),,> 100 µM (inactive),> 100 µM (inactive),> 100 µM (inactive),> 100 µM (inactive),> 100 µM (inactive),> 100 µM (inactive),,> 100 µM (inactive),,,> 100 µM (inactive),> 100 µM (inactive)
CN(Cc1cc(Cl)c(Cl)cc1NC(=O)CN)[C@H]1CCCC[C@@H]1N1CCCC1,17.8 µM (inactive),66.2 µM (inactive),38.3 µM (inactive),15.6 µM (inactive),15.4 µM (inactive),24.9 µM (inactive),,21.8 µM (inactive),,92.7 µM (inactive),28.1 µM (inactive),74 µM (inactive),> 100 µM (inactive),69.3 µM (inactive),17.2 µM (inactive),19.8 µM (inactive),,> 100 µM (inactive),68.2 µM (inactive),18.4 µM (inactive)
